Laboratory results as given in publication PMC3708846, “Cathelicidin-like Helminth Defence Molecules (HDMs): Absence of Cytotoxic, Anti-microbial and Anti-protozoan Activities Imply a Specific Adaptation to Immune Modulation” (PLoS Neglected Tropical Diseases, 2013).
In brackets after ≈: the same amount, converted by molar mass. Several values for one entry are separate records, joined by “and”; a condition that tells them apart may be missing. Equal values may be shown once. Read-outs that look alike come from different tables or passages of the source. Ends that are not written are not given here.

Key:
Staphylococcus epidermis = assay type: cell-based
Experimental: (§1) The minimal inhibitory concentration (MIC) of each peptide against various bacteria was determined using a standardized dilution method according to NCSLA guidelines [35]. Overnight colonies of E. coli, Pseudomonas aeruginosa, Salmonella typhimurium, Staphylococcus epidermis and Staphylococcus aureus, were suspended to a turbidity of 0.5 OD units and further diluted in Mueller-Hinton broth (MHB). […] Ten microliters of each concentration was added to each corresponding well of a 96-well polypropylene microtiter plate and 1×10^5 bacteria in the volume of 90 µL. The plate was incubated at 37°C for 16 h and then read at 600 nm with a Synergy H1 hybrid reader (Biotek).

human red blood cells = assay: Haemolytic activity; assay type: cell-based; conditions: 0.5% human RBC, 1 h 37°C, OD 414 nm, 100% = 1% Triton X-100, triplicate
Experimental: The peptide's haemolytic activities were determined using human red blood cells (RBCs; Research Blood Components, LLC) in 96-well polypropylene microtiter plates. One hundred µl of 0.5% RBC suspension was added to an equal volume of a peptide (8–256 µg/ml). After 1 h at 37°C, plates were centrifuged at 1420×g for 5 min and the optical density of the supernatant was measured at 414 nm with a Synergy H1 hybrid reader (Biotek). Values for 0% and 100% lysis were obtained by adding PBS or Triton X-100 (1%; final concentration) to RBCs, respectively. All assays were performed in triplicate and the values of percent lysis were within a 1% standard deviation range.

Salmonella typhimurium = assay type: cell-based
Experimental: as §1

Staphylococcus aureus = assay type: cell-based
Experimental: as §1

Pseudomonas aeruginosa = assay type: cell-based
Experimental: as §1

Escherichia coli = assay type: cell-based
Experimental: as §1

[1] = Staphylococcus epidermis, Mueller Hinton broth, acetic acid/BSA, 1×10^5 bacteria, 37°C 16 h, read at 600 nm
[2] = Salmonella typhimurium, Mueller Hinton broth, acetic acid/BSA, 1×10^5 bacteria, 37°C 16 h, read at 600 nm
[3] = Staphylococcus aureus, Mueller Hinton broth, acetic acid/BSA, 1×10^5 bacteria, 37°C 16 h, read at 600 nm
[4] = Pseudomonas aeruginosa, Mueller Hinton broth, acetic acid/BSA, 1×10^5 bacteria, 37°C 16 h, read at 600 nm
[5] = Escherichia coli, Mueller Hinton broth, acetic acid/BSA, 1×10^5 bacteria, 37°C 16 h, read at 600 nm

Molecule	MIC (Staphylococcus epidermis; [1]) [µg/mL]	Hemolytic activity (human red blood cells; peptide 8 µg/ml) [%]	Hemolytic activity (human red blood cells; peptide 16 µg/ml) [%]	Hemolytic activity (human red blood cells; peptide 32 µg/ml) [%]	Hemolytic activity (human red blood cells; peptide 64 µg/ml) [%]	Hemolytic activity (human red blood cells; peptide 128 µg/ml) [%]	Hemolytic activity (human red blood cells; peptide 256 µg/ml) [%]	MIC (Salmonella typhimurium; [2]) [µg/mL]	MIC (Staphylococcus aureus; [3]) [µg/mL]	MIC (Pseudomonas aeruginosa; [4]) [µg/mL]	MIC (Escherichia coli; [5]) [µg/mL]	MIC (Staphylococcus epidermis; 16 h) [µg/mL]	MIC (Salmonella typhimurium; murium, 16 h) [µg/mL]	MIC (Staphylococcus aureus; 16 h) [µg/mL]	MIC (Pseudomonas aeruginosa; 16 h) [µg/mL]	MIC (Escherichia coli; 16 h) [µg/mL]	Hemolytic activity
AMAYLAKDNLGEKITEVITILLNRLTDRLEKYAG [FhHDM-1p2]	>128	0	0	1.8	2.6	5.4	11.4	>128	>128	>128	>128	–	–	–	–	–	–
MDKYIRKEDLGMKMLDVAKILGRRIEKRMEYIAKK [Sm16-p73]	>128	0	0	0	0	0	0	>128	>128	>128	>128	–	–	–	–	–	–
ISRLAGLLRKGGEKIGEKLKKIGQKIKNFFQKLVPQPE [CRAMP]	–	–	–	–	–	–	–	–	–	–	–	>128	4	>128	4	2	–
GGLRSLGRKILRAWKKYGPIIVPIIRIG [BMAP-28]	–	–	–	–	–	–	–	–	–	–	–	4	4	8	4	1	50% and 70%
CC[C@H](C)[C@H](NC(=O)[C@H](CCCCN)NC(=O)[C@H](CCC(=O)O)NC(=O)[C@H](CCCCN)NC(=O)[C@H](CO)NC(=O)[C@H](CCCCN)NC(=O)[C@H](CCCNC(=N)N)NC(=O)[C@H](Cc1ccccc1)NC(=O)[C@H](Cc1ccccc1)NC(=O)[C@H](CC(=O)O)NC(=O)CNC(=O)[C@H](CC(C)C)NC(=O)[C@@H](N)CC(C)C)C(=O)NCC(=O)N[C@@H](CCCCN)C(=O)N[C@@H](CCC(=O)O)C(=O)N[C@@H](Cc1ccccc1)C(=O)N[C@@H](CCCCN)C(=O)N[C@@H](CCCNC(=N)N)C(=O)N[C@H](C(=O)N[C@H](C(=O)N[C@@H](CCC(N)=O)C(=O)N[C@@H](CCCNC(=N)N)C(=O)N[C@H](C(=O)N[C@@H](CCCCN)C(=O)N[C@@H](CC(=O)O)C(=O)N[C@@H](Cc1ccccc1)C(=O)N[C@@H](CC(C)C)C(=O)N[C@@H](CCCNC(=N)N)C(=O)N[C@@H](CC(N)=O)C(=O)N[C@@H](CC(C)C)C(=O)N[C@H](C(=O)N1CCC[C@H]1C(=O)N[C@@H](CCCNC(=N)N)C(=O)N[C@H](C(=O)N[C@@H](CCC(=O)O)C(=O)N[C@@H](CO)C(=O)O)[C@@H](C)O)C(C)C)[C@@H](C)CC)C(C)C)[C@@H](C)CC [LL-37, reference compound]	>128	–	1.7	4.1	10.4	20	20	2 (≈ 0.445 µM)	>128	8 (≈ 1.78 µM)	4 (≈ 0.89 µM)	–	–	–	–	–	–
